Data from publication PMC8268575 (International Journal of Molecular Sciences, 2021).
“Also recorded” adds a separate entry of the source.

What was measured:
[1] = HAoEC, 10,000 cells per well, in assay medium; supernatant analysed; settings: human, 37 °C, up to 24 h
[2] = HUVEC, 10,000 cells per well, in assay medium; supernatant analysed; settings: human, 37 °C, up to 24 h
mouse plasma = settings: cited from earlier work
[3] = human plasma of healthy volunteers; settings: cited from earlier work
PRCP [4] = test: in vitro; settings: cited from earlier work
[5] = system: Angiotensin-converting enzyme 2 (ACE2, EC 3.4.17.23); settings: cited from earlier work
Recombinant human PREP [6] = test: Recombinant human PREP at pH 7.4 (0.1 M potassium phosphate, 1 mM EDTA and 5 mM DTT); settings: up to 1 h
human plasma = settings: cited from earlier work
[7] = 24 h cellular supernatant of HUVEC (assay medium), in the absence of cells; settings: human, 37 °C, up to 1 h
rat plasma = settings: cited from earlier work
PRCP [8] = test: PRCP activity (RP-HPLC, Z-Pro-Phe) after pro-inflammatory stimulation of HUVEC; assay type: cell-based, human; settings: 16 h, 200 ng/mL LPS, 10 ng/mL TNFα or 5 ng/mL IL-1β; for PRCP activity in the cell lysate versus vehicle control: Kruskal-Wallis p = 0.066; for PRCP activity in the supernatant versus vehicle control: n = 4–6
Experimental: (§1) HUVEC and HAoEC were seeded in a 6-well plate at a density of 2.5 × 10^5 cells per well in 2 mL full medium for 24 h. Subsequently, cells were treated with 200 ng/mL LPS, 10 ng/mL TNFα, 5 ng/mL IL-1β, or vehicle control for 16 h. Subsequently, supernatants were collected and concentrated four times for PRCP activity measurements using Centriprep® Centrifugal Filter Devices, 30 K (Merck-Millipore, Burlington, MA, USA). For PRCP activity measurement, cells were collected per well and lysed 1 h on ice in 75 µL lysis buffer (1% octylglucoside, 10 mM EDTA, 70 µg/mL aprotinin, 50 mM Tris pH 8.3). Appropriate stimulation was confirmed by determining interleukin-6 (IL-6) and interleukin-8 (IL-8) levels in the 16 h aspirate by use of ELISA (Supplementary Materials File S7).
(§2) PRCP activity was measured in the cellular supernatant and cell lysate using a validated high-performance liquid chromatography (HPLC) method as described previously. Ten µL of each sample was incubated in duplicate with 75 µL 8 mM Z-Pro-Phe at pH 5 (0.1 M Natrium Acetate, 10 mM EDTA) for 2 h at 37 °C. To stop the enzymatic reaction, 75 µL stop solution (10% perchloric acid and 20% acetonitrile in purified water) was added and samples were centrifuged at 12,000× g for 10 min at 4 °C. Ten µL of the supernatant was injected into a reversed phase HPLC system (Shimadzu, Kioto, Japan) and the enzymatically formed Z-Pro was determined by its UV absorbance at 210 nm. Quantification was performed by peak height measurements. The PRCP activity is expressed as units per gram (U/g) protein for the cell lysate or units per liter (U/L) for the supernatant. One unit defines the amount of enzyme that hydrolyses 1 μmol of substrate per minute. Protein concentrations were determined via the Bradford method with bovine serum albumin as the standard protein. Statistical analyses were performed using SPSS software version 27 (IBM) and graphs were designed using Graphpad Prism 9 software. Differences in PRCP activity in the cell lysate and supernatant between control and stimulated cells were evaluated by Kruskal-Wallis and Mann-Whitney U-tests. Manual Bonferroni-correction was assessed for multiple testing based on relevant pairwise comparisons. Significant results are indicated with an asterisk (* p < 0.05, ** p < 0.01).

PRCP [9] = test: PRCP activity (RP-HPLC, Z-Pro-Phe) after pro-inflammatory stimulation of HAoEC; assay type: cell-based, human; settings: 16 h, 200 ng/mL LPS, 10 ng/mL TNFα or 5 ng/mL IL-1β; for PRCP activity in the cell lysate versus vehicle control: Kruskal-Wallis p = 0.563; for PRCP activity in the supernatant versus vehicle control: n = 4–6
Experimental: as §1, §2

ACE2 [10] = test: ACE2 activity (Mca-Ala-Pro-Lys(Dnp)-OH) after pro-inflammatory stimulation of HUVEC; assay type: cell-based, human; settings: 16 h, 200 ng/mL LPS, 10 ng/mL TNFα or 5 ng/mL IL-1β, n = 4-6, p = 0.098
Experimental: (§3) Supplementary Material File S2. ACE2 activity measurement
(§4) HUVEC and HAoEC were seeded in a 6-well plate at a density of 2.5x10^5 cells per well in 2 mL full medium for 24 h. Cells were treated with 200 ng/mL LPS, 10 ng/mL TNFα, 5 ng/mL IL-1β or vehicle control for 16 h. Supernatants were collected and concentrated four times using Centriprep Centrifugal Filter Devices, 30 K (Merck-Millipore). Cells were collected per well and lysed 1 h on ice in 75 µL lysis buffer (1% octyl glucoside, 10 mM EDTA, 70 µg/mL aprotinin, 50 mM Tris pH 8.3).
(§5) ACE2 activity was measured using the substrate Mca-Ala-Pro-Lys(Dnp)-OH (Bachem).
(§6) Samples were incubated with 100 µM of the substrate at pH 6.5 (50 mM MES, 300 mM NaCl, 10 µM Zn Cl2, 0.01% Triton X-100) in a black 96-well plate and ACE2 activity was measured kinetically for 1 h at 37 °C (λex=320 nm, λem=405 nm), using the Infinite 200 microplate reader (Tecan) and the Magellan software was used to process the data. Concentration of the generated Mca-Ala-Pro was determined by means of a standard curve. Specificity was determined by pre-incubating the samples for 15 min with 1 µM of the specific ACE2-inhibitor DX600. The ACE2 activity is expressed as units per gram (U/g) protein for the cell lysate. […] Protein concentrations were determined via the Bradford method with BSA as the standard protein. […]

ACE2 [11] = test: ACE2 activity (Mca-Ala-Pro-Lys(Dnp)-OH) after pro-inflammatory stimulation of HAoEC; assay type: cell-based, human; settings: 16 h, 200 ng/mL LPS, 10 ng/mL TNFα or 5 ng/mL IL-1β, n = 4-6, p = 0.422
Experimental: as §3, §4, §5, §6

HAoEC = test: Substrate cleavage in HAoEC, supernatant analysed by MALDI-TOF/TOF; assay type: in vitro ADME, human; settings: all inhibitor-treated HAoEC (1 µM compound 8o, 1 µM DX600 or both) compared with control, 100 µM (pyr)-apelin-13, n = 4
Experimental: (§7) The experiment was independently conducted 4 times. […] The supernatants were desalted and concentrated by use of C18 ZipTips (Merck-Millipore, Burlington, MA, USA) and eluted directly on the MALDI target in 70% acetonitrile/0.1% TFA. Subsequently, a MALDI matrix solution of 2.5 mg/mL α-cyano-4-hydroxycinnamic acid in 70% acetonitrile/0.1% TFA was applied on each spot, air-dried at room temperature, and the target was introduced into a 4800 plus MALDI TOF/TOF^TM Analyzer. Mass spectrometry (MS) spectra (mass range: 600–4000 Da) were acquired in positive reflector mode with a laser intensity of 5000. To confirm the identity of the most important peptides, MS/MS spectra were generated by use of collision induced dissociation with a laser intensity of 5500. Calibration was done during analysis using the 6-peptide mixture (AB Sciex, Framingham, MA, USA). Mass spectra were generated by use of the 4000 Series Explorer and analyzed by mMas. […] The ratio of the peak intensity of the cleaved substrate to the peak intensity of the intact substrate is an indication for the C-terminal cleavage of the substrates. To check for additional cleavage sites, a search for other product peaks was completed. Statistical analysis was performed using SPSS software version 27 (IBM). Two-way ANOVA analysis was conducted to examine the effect of the two independent variables (treatment duration and treatment option) on the ratio of the peak intensities.

recombinant human PREP [12] = target: T1, recombinant human PREP (Homo sapiens, UniProt P48147); test: Cleavage by recombinant PREP, MALDI-TOF/TOF; settings: pH 7.4 (0.1 M potassium phosphate, 1 mM EDTA, 5 mM DTT), 100 µM substrate, 0 s to 1 h
T1 sequence (P48147 1-710): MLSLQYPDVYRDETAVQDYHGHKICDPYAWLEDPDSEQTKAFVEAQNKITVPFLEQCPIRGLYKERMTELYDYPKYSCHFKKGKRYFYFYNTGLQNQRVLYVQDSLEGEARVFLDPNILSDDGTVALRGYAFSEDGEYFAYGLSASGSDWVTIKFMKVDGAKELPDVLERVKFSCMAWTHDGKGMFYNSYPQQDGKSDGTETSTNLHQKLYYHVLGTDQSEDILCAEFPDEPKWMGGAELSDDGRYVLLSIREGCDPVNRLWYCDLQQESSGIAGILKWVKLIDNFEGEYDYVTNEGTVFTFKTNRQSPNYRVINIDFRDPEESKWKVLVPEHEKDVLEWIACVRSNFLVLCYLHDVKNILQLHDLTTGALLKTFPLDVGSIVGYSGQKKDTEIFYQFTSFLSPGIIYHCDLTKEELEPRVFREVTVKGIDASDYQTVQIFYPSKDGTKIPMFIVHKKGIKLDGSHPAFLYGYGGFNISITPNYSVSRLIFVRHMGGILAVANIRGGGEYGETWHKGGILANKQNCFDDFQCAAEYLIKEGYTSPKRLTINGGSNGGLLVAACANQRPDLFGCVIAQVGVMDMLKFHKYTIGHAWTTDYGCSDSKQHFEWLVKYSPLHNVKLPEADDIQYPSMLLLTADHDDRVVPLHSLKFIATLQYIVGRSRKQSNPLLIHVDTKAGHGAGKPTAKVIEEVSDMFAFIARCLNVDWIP
Experimental: Supplementary Material File S3. Cleavage by recombinant PREP
Recombinant human PREP, expressed in BL21 (DE3) cells as previously described, was […]
(Laboratory for Medicinal Chemistry, University of Antwerp) or vehicle control at pH 7.4 (0.1 M potassium phosphate, 1 mM EDTA and 5 mM DTT). 100 μM substrate ((pyr)-apelin-13, (pyr)-apelin-13(1-12), Ang II or α-MSH 1-13) or vehicle control (PBS) was added. The reaction was stopped by acidification (pH<3) with 0.1% TFA after different time periods (0 s, 30 s, 1 min, 5 min, 15 min, 30 min or 1 h) and samples were stored at -80 °C.
A search for product peaks of the different peptides was conducted.
1. Van Elzen, R.; Schoenmakers, E.; Brandt, I.; Van Der Veken, P.; Lambeir, A.M.
Ligand-induced conformational changes in prolyl oligopeptidase: A kinetic approach.

HUVEC = test: Substrate cleavage in HUVEC, supernatant analysed by MALDI-TOF/TOF; assay type: in vitro ADME, human; settings: PRCP-inhibited (1 µM compound 8o) or PRCP/ACE2-inhibited HUVEC compared with control or ACE2-inhibited (1 µM DX600) HUVEC, 100 µM (pyr)-apelin-13, n = 4
Experimental: as §7

Molecule	cleaved bond [1]	cleaved bond [2]	PRCP activity in the cell lysate versus vehicle control (PRCP [8])	PRCP activity in the supernatant versus vehicle control (PRCP [8])	PRCP activity in the cell lysate versus vehicle control (PRCP [9])	PRCP activity in the supernatant versus vehicle control (PRCP [9])	ACE2 activity in the cell lysate versus vehicle control (ACE2 [10])	ACE2 activity in the cell lysate versus vehicle control (ACE2 [11])	further results
Ac-SYSMEHFRWGKPV-NH₂	P12-V13	P12-V13							fragment found [1]: α-MSH 1-10; fragment found [2]: α-MSH 1-10
pERPRLSHKGPMPF	P12-Phe13, 8 h; also recorded: Ser6-His7, 8 h	P12-Phe13, 24 h							cleaved bond (mouse plasma): Leu5-Ser6, first_seen; also recorded: Ser6-His7; fragment found [3]: (pyr)-apelin-13(1-6); cleaved bond (PRCP [4]): P12-Phe13; cleaved bond [5]: P12-Phe13; not cleaved [2]: In HUVEC, this product could not be detected; not cleaved (Recombinant human PREP [6]): Only the peaks corresponding with the intact peptides could be observed; cleaved bond (human plasma): Leu5-Ser6, first_seen; also recorded: Ser6-His7; cleaved bond [7]: P12-Phe13, 1 h; cleaved bond (rat plasma): Leu5-Ser6, first_seen; also recorded: Ser6-His7
IL-1β: pro-inflammatory stimulus, 5 ng/mL			no difference	increase in PRCP activity	no difference	increase in PRCP activity	No difference	No difference	
CSCC[C@H](NC(=O)[C@@H]1CCCN1C(=O)CNC(=O)[C@H](CCCCN)NC(=O)[C@H](Cc1c[nH]cn1)NC(=O)[C@H](CO)NC(=O)[C@H](CC(C)C)NC(=O)[C@H](CCCNC(=N)N)NC(=O)[C@@H]1CCCN1C(=O)[C@H](CCCNC(=N)N)NC(=O)[C@@H]1CCC(=O)N1)C(=O)N1CCC[C@H]1C(=O)O [(pyr)-apelin-13(1–12)]									(pyr)-apelin-13(1–12) observed in supernatant after 24 h (HAoEC): significantly less; Cleavage by recombinant human PREP (recombinant human PREP [12]): did not cleave; (pyr)-apelin-13(1–12) detected in supernatant after 24 h (HUVEC): Significantly less
TNFα			no difference	increase in PRCP activity	no difference	increase in PRCP activity	No difference	No difference	
